One block for each compound: values may come before it.
Key:
[1] = molecular target: T1, Stearoyl-CoA desaturase (Homo sapiens) (UniProt O00767); test: Inhibition of SCD1 in human A431 cells assessed as conversion of 13C-palmitic acid to 13C-palmitoleic acid after 4 hrs by LC/MS analysis; type: cell-based; conditions: A-431
T1 sequence (whole entry): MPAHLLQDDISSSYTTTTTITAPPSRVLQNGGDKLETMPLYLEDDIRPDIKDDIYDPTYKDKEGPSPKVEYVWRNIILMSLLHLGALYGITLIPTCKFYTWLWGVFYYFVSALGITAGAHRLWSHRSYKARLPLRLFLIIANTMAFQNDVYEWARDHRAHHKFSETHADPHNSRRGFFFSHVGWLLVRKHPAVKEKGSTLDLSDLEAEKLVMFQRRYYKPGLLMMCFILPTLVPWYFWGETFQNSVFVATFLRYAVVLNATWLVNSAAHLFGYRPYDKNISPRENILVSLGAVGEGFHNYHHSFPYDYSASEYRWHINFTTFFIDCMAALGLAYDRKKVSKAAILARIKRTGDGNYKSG

Mus musculus [2] = test: Hepatotoxicity in DIO C57BL/6 mouse assessed as plasma AST level at 30 mg/kg, po bid after 10 days (reference value: 99 +/- 9 U/L); type: toxicity, organism-based; parameters: dose 30 mg/kg, route oral; conditions: in vivo, 240 h
Mus musculus [3] = test: Hepatotoxicity in DIO C57BL/6 mouse assessed as plasma AST level at 10 mg/kg, po qd after 10 days (reference value: 99 +/- 9 U/L); type: toxicity, organism-based; parameters: dose 10 mg/kg, route oral; conditions: in vivo, 240 h
Mus musculus [4] = test: Hepatotoxicity in DIO C57BL/6 mouse assessed as plasma AST level at 30 mg/kg, po qd after 10 days (reference value: 99 +/- 9 U/L); type: toxicity, organism-based; parameters: dose 30 mg/kg, route oral; conditions: in vivo, 240 h
Mus musculus [5] = test: Hepatotoxicity in DIO C57BL/6 mouse assessed as plasma ALT level at 30 mg/kg, po bid after 10 days (reference value: 58 +/- 5 U/L); type: toxicity, organism-based; parameters: dose 30 mg/kg, route oral; conditions: in vivo, 240 h
Mus musculus [6] = test: Hepatotoxicity in DIO C57BL/6 mouse assessed as plasma ALT level at 10 mg/kg, po qd after 10 days (reference value: 58 +/- 5 U/L); type: toxicity, organism-based; parameters: dose 10 mg/kg, route oral; conditions: in vivo, 240 h
Mus musculus [7] = test: Hepatotoxicity in DIO C57BL/6 mouse assessed as plasma ALT level at 30 mg/kg, po qd after 10 days (reference value: 58 +/- 5 U/L); type: toxicity, organism-based; parameters: dose 30 mg/kg, route oral; conditions: in vivo, 240 h
Mus musculus [8] = test: Antiobesity activity in po dosed DIO C57BL/6 mouse assessed as decrease in body weight gain administered as qd/bid; type: functional, organism-based
Mus musculus [9] = test: Antiobesity activity in DIO C57BL/6 mouse assessed as decrease in body weight gain at 30 mg/kg, po bid (reference value: 2.06 +/- 0.33 g); type: functional
Mus musculus [10] = test: Antiobesity activity in DIO C57BL/6 mouse assessed as decrease in body weight gain at 30 mg/kg, po qd (reference value: 2.06 +/- 0.33 g); type: functional
Mus musculus [11] = test: Antiobesity activity in DIO C57BL/6 mouse assessed as decrease in body weight gain at 10 mg/kg, po qd (reference value: 2.06 +/- 0.33 g); type: functional
[12] = Clearance in rat at 10 mg/kg, po; type: ADME, organism-based; parameters: dose 10 mg/kg, route oral; conditions: in vivo
[13] = Oral bioavailability in rat at 10 mg/kg; type: ADME, organism-based; conditions: in vivo
[14] = AUC (24 hrs) in rat at 10 mg/kg, po; type: ADME, organism-based; parameters: time < 24 hr, dose 10 mg/kg, route oral; conditions: plasma
[15] = AUC (24 hrs) in DIO mouse at 30 mg/kg, po; type: ADME, organism-based; parameters: time < 24 hr, dose 30 mg/kg, route oral; conditions: plasma
[16] = Volume of distribution at steady state in rat at 2 mg/kg, iv; type: ADME, organism-based; parameters: dose 2 mg/kg, route intravenous; conditions: in vivo, read-out: Vdss
[17] = AUC (24 hrs) in rat at 2 mg/kg, iv; type: ADME, organism-based; parameters: time < 24 hr, dose 2 mg/kg, route intravenous; conditions: plasma
[18] = Cmax in rat at 10 mg/kg, po; type: ADME, organism-based; parameters: dose 10 mg/kg, route oral; conditions: in vivo
[19] = Cmax in DIO mouse at 30 mg/kg, po; type: ADME, organism-based; parameters: dose 30 mg/kg, route oral; conditions: in vivo
[20] = Half life in DIO mouse at 30 mg/kg, po; type: ADME, organism-based; parameters: dose 30 mg/kg, route oral; conditions: in vivo
[21] = Cmax in rat at 2 mg/kg, iv; type: ADME, organism-based; parameters: dose 2 mg/kg, route intravenous; conditions: in vivo
[22] = Half life in rat at 10 mg/kg, po; type: ADME, organism-based; parameters: dose 10 mg/kg, route oral; conditions: in vivo
[23] = Half life in rat at 2 mg/kg, iv; type: ADME, organism-based; parameters: dose 2 mg/kg, route intravenous; conditions: in vivo
[24] = molecular target: T2, Acyl-CoA desaturase 1 (Rattus norvegicus) (UniProt P07308); test: Inhibition of SCD1 in Sprague-Dawley rat liver microsomes using Stearoyl-[9,10-3H]-CoA as substrate assessed as [3H2O] generation at 1 uM
T2 sequence (whole entry): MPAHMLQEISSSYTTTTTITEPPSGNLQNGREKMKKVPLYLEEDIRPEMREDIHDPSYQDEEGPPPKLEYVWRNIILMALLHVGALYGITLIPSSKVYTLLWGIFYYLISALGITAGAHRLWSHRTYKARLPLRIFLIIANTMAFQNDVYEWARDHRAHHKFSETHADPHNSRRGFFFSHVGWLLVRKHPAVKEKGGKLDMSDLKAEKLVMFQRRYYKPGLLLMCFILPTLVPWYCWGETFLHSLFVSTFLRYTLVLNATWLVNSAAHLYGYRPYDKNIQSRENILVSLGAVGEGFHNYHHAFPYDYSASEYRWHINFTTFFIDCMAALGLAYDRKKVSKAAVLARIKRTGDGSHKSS

Acyl-CoA desaturase 1 = molecular target: T3, Acyl-CoA desaturase 1 (Rattus norvegicus, UniProt P07308); test: Inhibition of SCD1 in Sprague-Dawley rat liver microsomes using Stearoyl-[9,10-3H]-CoA as substrate assessed as [3H2O] generation
T3 sequence (P07308 whole entry): T2 sequence (whole entry)

IC50 [1]: 0.016 µM
SMILES: O=C(Nc1nc2c(s1)CNCC2)N1CCC(N2CCc3ccc(F)cc32)CC1

CL/F [12]: 0.5 mL/min/kg
bioavailability [13]: 36.9%
AUC at 24 h [14]: 118 µg·h/mL
AUC at 24 h [15]: 169 µg·h/mL
Vd [16]: 0.19 L/kg
AUC at 24 h [17]: 49.8 µg·h/mL
Cmax [18]: 8800 ng/mL
Cmax [19]: 14900 ng/mL
half-life [20]: 3.1 h
Cmax [21]: 9200 ng/mL
half-life [22]: 6.3 h
half-life [23]: 3.8 h
IC50 [1]: 0.054 µM
SMILES: Cc1csc(NC(=O)N2CCC(c3noc4ccc(F)cc34)CC2)n1
Activity (Mus musculus [2]): 102 U/L
Activity (Mus musculus [3]): 89 U/L
Activity (Mus musculus [4]): 93 U/L
Activity (Mus musculus [5]): 41 U/L
Activity (Mus musculus [6]): 57 U/L
Activity (Mus musculus [7]): 68 U/L
Activity (Mus musculus [8]): Dose-dependent effect
Activity (Mus musculus [9]): -0.69 g
Activity (Mus musculus [10]): 0.01 g
Activity (Mus musculus [11]): 0 g

IC50 [1]: 0.154 µM
SMILES: O=C(Nc1ncc(CO)s1)N1CCC(N2CCc3ccc(F)cc32)CC1

inhibition [24]: 46%
SMILES: CC(=O)N1CCc2nc(NC(=O)N3CCC(N4CCc5ccc(F)cc54)CC3)sc2C1

IC50 (Acyl-CoA desaturase 1): 0.538 µM
SMILES: Cc1csc(NC(=O)N2CCC(n3ccc4ccccc43)CC2)n1

IC50 [1]: 0.018 µM
SMILES: O=C(Nc1nc(CCO)cs1)N1CCC(N2CCc3ccc(F)cc32)CC1

IC50 [1]: 0.076 µM
SMILES: O=C(Nc1nc2c(s1)CCCC2)N1CCC(N2CCc3ccc(F)cc32)CC1

IC50 [1]: 0.049 µM
SMILES: NC(=O)c1cnc(NC(=O)N2CCC(N3CCc4ccc(F)cc43)CC2)s1

SMILES: Cc1csc(NC(=O)N2CCC(N3CCc4ccc(F)cc43)CC2)n1
IC50 [1]: 0.021 µM

IC50 (Acyl-CoA desaturase 1): 0.153 µM
SMILES: Cc1csc(NC(=O)N2CCC(N3CCc4ccccc43)CC2)n1

IC50 [1]: 0.108 µM
SMILES: Cc1cnc(NC(=O)N2CCC(N3CCc4ccc(F)cc43)CC2)s1

inhibition [24]: 20%
SMILES: CNC(=O)c1csc(NC(=O)N2CCC(N3CCc4ccc(F)cc43)CC2)n1

inhibition [24]: 15%
SMILES: CNC(=O)c1cccc(NC(=O)N2CCC(c3c[nH]c4ccccc34)CC2)c1

IC50 [1]: 0.03 µM
IC50 (Acyl-CoA desaturase 1): 0.018 µM
SMILES: O=C1NCCn2nc(NC(=O)N3CCC(N4CCc5ccc(F)cc54)CC3)cc21

IC50 [1]: 0.001 µM
IC50 (Acyl-CoA desaturase 1): 0.014 µM
SMILES: O=C(Nc1nc2c(s1)CC(O)CC2)N1CCC(N2CCc3ccc(F)cc32)CC1 (stereo not given)

IC50 [1]: 0.206 µM
SMILES: CNC(=O)c1cnc(NC(=O)N2CCC(N3CCc4ccc(F)cc43)CC2)s1

IC50 [1]: 0.042 µM
SMILES: O=C(Nc1nc(CO)cs1)N1CCC(N2CCc3ccc(F)cc32)CC1

IC50 [1]: 0.113 µM
SMILES: O=C(CO)N1CCc2nc(NC(=O)N3CCC(N4CCc5ccc(F)cc54)CC3)sc2C1

SMILES: CNC(=O)c1cccc(NC(=O)N2CCC(N3C(=O)Cc4ccccc43)CC2)c1
inhibition [24]: 7%

IC50 [1]: 0.017 µM
SMILES: O=C(Nc1nc2c(s1)COCC2)N1CCC(N2CCc3ccc(F)cc32)CC1

IC50 [1]: 0.006 µM
SMILES: O=C(Nc1ncc(CCO)s1)N1CCC(N2CCc3ccc(F)cc32)CC1
